Assay [1] deals with T1, HIV Env six-helix bundle (6HB) structure (Human immunodeficiency virus type 1 group M subtype B, UniProt P04579).
T1 construct: H9 cells chronically infected with HIV-1 (H9/HIV-1RF); endogenous in cells; host or cells: H9 cells chronically infected with HIV-1 strain RF (Env is made from the virus in the infected cells, not by transfection)
Put plainly: Six-helix bundle (6HB) assay. The assay is classed as cell-based, HIV-1 (strain RF). The method in brief: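 Chronically HIV-1 RF-infected H9 cells (12-40 days post-infection), 2.5×10^5 per well, were preincubated with compound for 30 min at 37 °C. sCD4 at 1 μg/mL was added for 1 h to trigger Env changes. 6HB-specific rabbit serum (1 h, 37 °C) was then added, followed by PE anti-rabbit (45 min, 4 °C), with flow cytometric fluorescence read-out.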

For another assay, the system named is HIV-1, NL4-3 strain. The assay is described as follows: Virus infection assay (virus entry and single-cycle infection). The class given is cell-based. To be noted: Human immunodeficiency virus 1, NL43, TZM-b1, read-out: Nl4. The method, boiled down:
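TZM-b1 cells (CD4, CXCR4, CCR5; LTR-driven lacZ/luciferase reporters) were infected with HIV-1 NL4-3 (MOI 0.01) with 80 μg/mL DEAE-dextran in the presence of test compound, 4 h at 37 °C before adding complete medium. Infection was quantified one day post-infection as chemiluminescent β-galactosidase signal.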

T1 sequence (P04579 32-519): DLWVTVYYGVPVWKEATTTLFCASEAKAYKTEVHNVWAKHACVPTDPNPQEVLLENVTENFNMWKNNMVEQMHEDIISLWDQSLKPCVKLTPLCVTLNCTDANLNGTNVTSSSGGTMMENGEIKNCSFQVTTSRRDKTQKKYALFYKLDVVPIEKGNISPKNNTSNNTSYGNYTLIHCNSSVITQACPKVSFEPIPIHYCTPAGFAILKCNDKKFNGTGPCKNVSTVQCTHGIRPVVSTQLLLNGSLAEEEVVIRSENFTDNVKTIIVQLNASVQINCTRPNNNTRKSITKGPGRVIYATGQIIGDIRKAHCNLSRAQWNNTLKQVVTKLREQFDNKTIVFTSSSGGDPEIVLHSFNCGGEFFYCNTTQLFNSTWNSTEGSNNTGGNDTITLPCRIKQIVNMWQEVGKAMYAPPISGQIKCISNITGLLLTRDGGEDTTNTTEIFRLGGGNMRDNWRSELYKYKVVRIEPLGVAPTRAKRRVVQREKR
T1 sequence (P04579 520-865): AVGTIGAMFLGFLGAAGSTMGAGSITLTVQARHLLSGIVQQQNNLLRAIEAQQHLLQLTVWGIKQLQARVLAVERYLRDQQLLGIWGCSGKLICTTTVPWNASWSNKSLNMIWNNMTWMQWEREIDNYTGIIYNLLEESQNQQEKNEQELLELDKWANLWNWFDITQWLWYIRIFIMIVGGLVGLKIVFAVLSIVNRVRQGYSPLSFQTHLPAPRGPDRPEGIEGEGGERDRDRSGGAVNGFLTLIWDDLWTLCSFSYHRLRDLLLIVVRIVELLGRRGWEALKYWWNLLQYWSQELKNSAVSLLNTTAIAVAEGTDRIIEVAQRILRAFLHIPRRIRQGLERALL

As for `COc1ccc(-c2nc3c(C(=O)N4CCN([C@H](CO)c5cccc(OC)c5)C[C@H]4C)cnn3c(C(F)(F)F)c2C)cc1` [methanone, [(2R)-4-[(1S)-2-hydroxy-1-(3-methoxyphenyl)ethyl]-2-methyl-1-piperazinyl][5-(4-methoxyphenyl)-6-methyl-7-(trifluoromethyl)pyrazolo[1,5-α]pyrimidin-3-yl]-], the IC50 in assay [1] is under 1 µM; with HIV-1, NL4-3 strain, under 1 µM.

With `COc1ccc(-c2nc3c(C(=O)N4CCN(C(CO)c5cccc(C#N)c5)C[C@H]4C)cnn3c(C(F)(F)F)c2C)cc1` (stereo partly drawn) [benzonitrile, 3-[2-hydroxy-1-[(3R)-4-[[5-(4-methoxyphenyl)-6-methyl-7-(trifluoromethyl)pyrazolo[1,5-α]pyrimidin-3-yl]carbonyl]-3-methyl-1-piperazinyl]ethyl]-], the IC50 in assay [1] is under 1 µM; with HIV-1, NL4-3 strain it was under 1 µM.

`COc1ccc(-c2nc3c(C(=O)N4CCN([C@H](C)c5cc(F)cc(F)c5F)C[C@H]4C)cnn3c(C(F)(F)F)c2C)cc1` [methanone, [5-(4-methoxyphenyl)-6-methyl-7-(trifluoromethyl)pyrazolo[1,5-α]pyrimidin-3-yl][(2R)-2-methyl-4-[(1R)-1-(2,3,5-trifluorophenyl)ethyl]-1-piperazinyl]-]: the IC50 in assay [1] was under 1 µM; in the assay on HIV-1, NL4-3 strain, under 1 µM.

As for `COc1ccc(-c2nc3c(C(=O)N4CCN(C(CO)c5c(F)cccc5OC)C[C@H]4C)cnn3c(C(F)(F)F)c2C)cc1` (stereo partly drawn) [methanone, [(2R)-4-[1-(2-fluoro-6-methoxyphenyl)-2-hydroxyethyl]-2-methyl-1-piperazinyl][5-(4-methoxyphenyl)-6-methyl-7-(trifluoromethyl)pyrazolo[1,5-α]pyrimidin-3-yl]-], the IC50 was under 1 µM in assay [1] and under 1 µM with HIV-1, NL4-3 strain.

Consider `COc1ccc(-c2nc3c(C(=O)N4CCN(C(CO)c5ccc(OC)nc5OC)C[C@H]4C)cnn3c(C(F)(F)F)c2C)cc1` (stereo partly drawn) [methanone, [(2R)-4-[1-(2,6-dimethoxy-3-pyridinyl)-2-hydroxyethyl]-2-methyl-1-piperazinyl][5-(4-methoxyphenyl)-6-methyl-7-(trifluoromethyl)pyrazolo[1,5-α]pyrimidin-3-yl]-], for which the IC50 in assay [1] was under 1 µM; in the assay with HIV-1, NL4-3 strain, under 1 µM.

On to `CCOc1ccc(C(CO)N2CCN(C(=O)c3cnn4c(C(F)(F)F)c(C)c(-c5ccc(OC)cc5)nc34)[C@H](C)C2)cn1` (stereo partly drawn) [methanone, [(2R)-4-[1-(6-ethoxy-3-pyridinyl)-2-hydroxyethyl]-2-methyl-1-piperazinyl][5-(4-methoxyphenyl)-6-methyl-7-(trifluoromethyl)pyrazolo[1,5-α]pyrimidin-3-yl]-], for which the IC50 was under 1 µM in assay [1] and under 1 µM in the assay on HIV-1, NL4-3 strain.

With `COc1ccc(-c2nc3c(C(=O)N4CCN([C@@H](C)c5ccc(NC(N)=O)cc5)C[C@H]4C)cnn3c(C(F)(F)F)c2C)cc1` [urea, N-[4-[(1)-1-[(3R)-4-[[5-(4-methoxyphenyl)-6-methyl-7-(trifluoromethyl)pyrazolo[1,5-α]pyrimidin-3-yl]carbonyl]-3-methyl-1-piperazinyl]ethyl]phenyl]-], the IC50 in assay [1] was 1.1 to 10 µM; with HIV-1, NL4-3 strain, under 1 µM.

Take `COc1ccc(-c2nc3c(C(=O)N4CCN([C@H](CO)c5cscc5C)C[C@H]4C)cnn3c(C(F)(F)F)c2C)cc1` [methanone, [(2R)-4-[(1S)-2-hydroxy-1-(4-methyl-3-thienyl)ethyl]-2-methyl-1-piperazinyl][5-(4-methoxyphenyl)-6-methyl-7-(trifluoromethyl)pyrazolo[1,5-α]pyrimidin-3-yl]-]: the IC50 in assay [1] was under 1 µM; with HIV-1, NL4-3 strain, under 1 µM.

As to `COc1ccc(-c2nc3c(C(=O)N4CCN([C@@H](C)c5ccccn5)C[C@H]4C)cnn3c(C(F)(F)F)c2C)cc1` [methanone, [5-(4-methoxyphenyl)-6-methyl-7-(trifluoromethyl)pyrazolo[1,5-α]pyrimidin-3-yl][(2R)-2-methyl-4-[(1S)-1-(2-pyridinyl)ethyl]-1-piperazinyl]-], the IC50 in assay [1] was under 1 µM; with HIV-1, NL4-3 strain, under 1 µM.

As to `COc1ccc(-c2nc3c(C(=O)N4CCN([C@@H](C)c5ccc(N)cc5)C[C@H]4C)cnn3c(C(F)(F)F)c2C)cc1` [methanone, [(2R)-4-[(1S)-1-(4-aminophenyl)ethyl]-2-methyl-1-piperazinyl][5-(4-methoxyphenyl)-6-methyl-7-(trifluoromethyl)pyrazolo[1,5-α]pyrimidin-3-yl]-], the IC50 in assay [1] is 1.1 to 10 µM; in the assay on HIV-1, NL4-3 strain, under 1 µM.

As to `COc1ccc(-c2nc3c(C(=O)N4CCN([C@@H](CO)c5c(C)noc5C)C[C@H]4C)cnn3c(C(F)(F)F)c2C)cc1` [methanone, [(2R)-4-[(1R)-1-(3,5-dimethyl-4-isoxazolyl)-2-hydroxyethyl]-2-methyl-1-piperazinyl][5-(4-methoxyphenyl)-6-methyl-7-(trifluoromethyl)pyrazolo[1,5-α]pyrimidin-3-yl]-], the IC50 in assay [1] was 1.1 to 10 µM; in the assay with HIV-1, NL4-3 strain, 1.1 to 10 µM.

Turning to `COc1ccc(-c2nc3c(C(=O)N4CCN(C(CO)c5ccccc5OC)C[C@H]4C)cnn3c(C(F)(F)F)c2C)cc1` (stereo partly drawn) [methanone, [(2R)-4-[2-hydroxy-1-(2-methoxyphenyl)ethyl]-2-methyl-1-piperazinyl][5-(4-methoxyphenyl)-6-methyl-7-(trifluoromethyl)pyrazolo[1,5-α]pyrimidin-3-yl]-], the IC50 is under 1 µM in assay [1] and under 1 µM in the assay with HIV-1, NL4-3 strain.

Regarding `COc1ccc(-c2nc3c(C(=O)N4CCN([C@@H](C)c5cccc(NC(=O)OC(C)(C)C)c5)C[C@H]4C)cnn3c(C(F)(F)F)c2C)cc1` [carbamic acid, N-[3-[(1S)-1-[(3R)-4-[[5-(4-methoxyphenyl)-6-methyl-7-(trifluoromethyl)pyrazolo[1,5-α]pyrimidin-3-yl]carbonyl]-3-methyl-1-piperazinyl]ethyl]phenyl]-, 1,1-dimethylethyl ester], the IC50 in assay [1] was 1.1 to 10 µM; in the assay on HIV-1, NL4-3 strain, over 10.1 µM.

As to `COc1ccc(-c2nc3c(C(=O)N4CCN(C(CO)c5cccc(N)c5)C[C@H]4C)cnn3c(C(F)(F)F)c2C)cc1` (stereo partly drawn) [methanone, [(2R)-4-[1-(3-aminophenyl)-2-hydroxyethyl]-2-methyl-1-piperazinyl][5-(4-methoxyphenyl)-6-methyl-7-(trifluoromethyl)pyrazolo[1,5-α]pyrimidin-3-yl]-], the IC50 in assay [1] is under 1 µM; with HIV-1, NL4-3 strain, under 1 µM.

`COc1ccc(-c2nc3c(C(=O)N4CCN([C@H](CO)c5ccc(C)s5)C[C@H]4C)cnn3c(C(F)(F)F)c2C)cc1` [methanone, [(2R)-4-[(1R)-2-hydroxy-1-(5-methyl-2-thienyl)ethyl]-2-methyl-1-piperazinyl][5-(4-methoxyphenyl)-6-methyl-7-(trifluoromethyl)pyrazolo[1,5-α]pyrimidin-3-yl]-]: the IC50 in assay [1] is under 1 µM; in the assay on HIV-1, NL4-3 strain it was under 1 µM.

As to `COc1ccc(-c2nc3c(C(=O)N4CCN(C(CO)c5cccc(C(N)=O)c5)C[C@H]4C)cnn3c(C(F)(F)F)c2C)cc1` (stereo partly drawn) [benzamide, 3-[2-hydroxy-1-[(3R)-4-[[5-(4-methoxyphenyl)-6-methyl-7-(trifluoromethyl)pyrazolo[1,5-α]pyrimidin-3-yl]carbonyl]-3-methyl-1-piperazinyl]ethyl]-], the IC50 in assay [1] was under 1 µM; with HIV-1, NL4-3 strain it was under 1 µM.

`COc1ccc(-c2nc3c(C(=O)N4CCN(C(CO)c5ccccc5NC(N)=O)C[C@H]4C)cnn3c(C(F)(F)F)c2C)cc1` (stereo partly drawn) [urea, N-[2-[2-hydroxy-1-[(3R)-4-[[5-(4-methoxyphenyl)-6-methyl-7-(trifluoromethyl)pyrazolo[1,5-α]pyrimidin-3-yl]carbonyl]-3-methyl-1-piperazinyl]ethyl]phenyl]-]: the IC50 in assay [1] is over 10.1 µM; in the assay with HIV-1, NL4-3 strain, over 10.1 µM.

Turning to `COc1ccc(-c2nc3c(C(=O)N4CCN(C(CO)c5cccc(CN)c5)C[C@H]4C)cnn3c(C(F)(F)F)c2C)cc1` (stereo partly drawn) [methanone, [(2R)-4-[1-[3-(aminomethyl)phenyl]-2-hydroxyethyl]-2-methyl-1-piperazinyl][5-(4-methoxyphenyl)-6-methyl-7-(trifluoromethyl)pyrazolo[1,5-α]pyrimidin-3-yl]-], the IC50 in assay [1] is over 10.1 µM; in the assay on HIV-1, NL4-3 strain, over 10.1 µM.

With `COc1ccc(-c2nc3c(C(=O)N4CCN([C@@H](c5ccccc5)C(F)(F)F)C[C@H]4C)cnn3c(C(F)(F)F)c2C)cc1` [methanone, [5-(4-methoxyphenyl)-6-methyl-7-(trifluoromethyl)pyrazolo[1,5-α]pyrimidin-3-yl][(2R)-2-methyl-4-[(1S)-2,2,2-trifluoro-1-phenylethyl]-1-piperazinyl]-], the IC50 in assay [1] is under 1 µM; in the assay on HIV-1, NL4-3 strain, under 1 µM.

As for `COc1ccc(-c2nc3c(C(=O)N4CCN(C(CO)c5cc(C)cs5)C[C@H]4C)cnn3c(C(F)(F)F)c2C)cc1` (stereo partly drawn) [methanone, [(2R)-4-[2-hydroxy-1-(4-methyl-2-thienyl)ethyl]-2-methyl-1-piperazinyl][5-(4-methoxyphenyl)-6-methyl-7-(trifluoromethyl)pyrazolo[1,5-α]pyrimidin-3-yl]-], the IC50 in assay [1] was under 1 µM; with HIV-1, NL4-3 strain, under 1 µM.

`COc1ccc(-c2nc3c(C(=O)N4CCN(C(CO)c5cnc(OC)nc5)C[C@H]4C)cnn3c(C(F)(F)F)c2C)cc1` (stereo partly drawn) [methanone, [(2R)-4-[2-hydroxy-1-(2-methoxy-5-pyrimidinyl)ethyl]-2-methyl-1-piperazinyl][5-(4-methoxyphenyl)-6-methyl-7-(trifluoromethyl)pyrazolo[1,5-α]pyrimidin-3-yl]-]: the IC50 in assay [1] was under 1 µM; in the assay with HIV-1, NL4-3 strain, under 1 µM.

Values taken from patent US20090215778A1, “Alpha-substituted Arylmethyl Piperazine Pyrazolo [1,5-alpha]Pyrimidine Amide Derivatives” (priority 2007, published 2009).
